Where “and” joins values, the source holds several entries; their conditions need not be identical. Equal entries are not always repeated. Where two headings read alike, the source gives them in different places.
What was measured:
[1] = type: in vitro ADME; conditions: PAMPA
Protocol: (§1) Because we believed that the physicochemical properties of newly-prepared diamides play important roles in their insecticidal activities, the studies were extended to investigate the bioavailability of organosulfur-based crop-protecting agents 14, 15a, 15b, 16a, and 16b in terms of plant systemic properties and membrane permeability. As references, their properties of chlorantraniliprole and cyantraniliprole were also measured.
(§2) [37] The physicochemical measurements for determinations of equilibrium solubility, log P, and PAMPA permeability were performed by Drug Discovery Platform Technology Team, KRICT, Korea.
(§3) Table S3. Physical properties of organosulfur-substituted anthranilic […]
(§4) Entry X Y Log P c,d Permeability e […]
(§5) aMethod for determination of equilibrium solubility: μSOL 25; bat 25 ℃ and pH 7.4; cUsing ACD / Labs T3 method (pH – metric); dfor graphs, please see the supporting information, eMethod for determination of […]

[2] = Equilibrium solubility (μSOL); type: physicochemical; conditions: 25 °C, thermodynamic from solid
Protocol: as §1, §2, §3, §4, §5

[3] = test system: third instar larvae of Spodoptera litura; experiment: whole plant or invertebrate; type: in vivo; conditions: for mortality at 25 ppm / mortality at 50 ppm: Spodoptera litura
Protocol: For the practical test, newly-prepared compounds 14–16 were evaluated for their insecticidal activities against the third instar larvae of Spodoptera litura according to the reported leaf-dip method.
[35] According to the literature 3a, 3b, and 3d methods, the insecticidal assays were performed by Kyung Nong Co. Ltd., Korea. In detail, please see the Supplementary materials.
Table S1 and S2: Larvicidal activity against Spodoptera (14 and 15a)
The lavicidal activities of synthesized compounds were evaluated by the leaf-dip procedure. 6 The aqueous solution of prepared compounds and chlorantraniliprole in acetone (H 2O : acetone = 95 : 5) were sprayed to a cabbage leave placed on moistened filter paper (disc, diameter 8.8 cm) in petri dishes. After allowing to dry, the dishes were infested with 10 Spodoptera litura (third-instar). After 1, 2, 3, and 4 days, percentage of mortalities was evaluated. The treatments were replicated three times. For negative control, larvicidal activities were 0 % at each time. Ref. is chlorantraniliprole as a positive control.
Table S1. Larvicidal activity depend on time against the 3 rd instar larvae of Spodoptera litura
Entry Compd Concentration Larvicidal activity (%) at 24 h
Entry Compd Concentration Larvicidal activity (%) at 48 h

[4] = pH-metric log P (ACD/Labs T3 method); type: physicochemical
Protocol: as §1
[39] For LogP, Using ACD/Labs T3 method (pH—metric), for graphs; please see the Supplementary materials.
as §3, §4, §5

[5] = 24 h, read-out: Larvicidal activity (%) at 24 h, Average, 24 h, 50 ppm, average of three replicates
[6] = 24 h, read-out: Larvicidal activity (%) at 24 h, replicate 1, 24 h, 50 ppm
[7] = 24 h, read-out: Larvicidal activity (%) at 24 h, replicate 2, 24 h, 50 ppm
[8] = 24 h, read-out: Larvicidal activity (%) at 24 h, replicate 3, 24 h, 50 ppm
[9] = 48 h, read-out: Larvicidal activity (%) at 48 h, Average, 48 h, 50 ppm, average of three replicates
[10] = 48 h, read-out: Larvicidal activity (%) at 48 h, replicate 1, 48 h, 50 ppm
[11] = 48 h, read-out: Larvicidal activity (%) at 48 h, replicate 2, 48 h, 50 ppm
[12] = 48 h, read-out: Larvicidal activity (%) at 48 h, replicate 3, 48 h, 50 ppm
[13] = 72 h, read-out: Larvicidal activity (%) at 72 h, replicate 1, 72 h, 50 ppm
[14] = 72 h, read-out: Larvicidal activity (%) at 72 h, replicate 2, 72 h, 50 ppm
[15] = 72 h, read-out: Larvicidal activity (%) at 72 h, replicate 3, 72 h, 50 ppm
[16] = 96 h, read-out: Larvicidal activity (%) at 96 h, replicate 1, 96 h, 50 ppm
[17] = 96 h, read-out: Larvicidal activity (%) at 96 h, replicate 2, 96 h, 50 ppm
[18] = 96 h, read-out: Larvicidal activity (%) at 96 h, replicate 3, 96 h, 50 ppm
[19] = read-out: Larvicidal Activity (%) at Time (h) 72 h, third instar larvae of S. litura, 72 h, concentration of 14 and 15a 50 ppm
[20] = read-out: Larvicidal Activity (%) at Time (h) 96 h, third instar larvae of S. litura, 96 h, concentration of 14 and 15a 50 ppm
[21] = third instar larvae of S. litura, 96 h, concentration of 14 and 15a 50 ppm

For `CNC(=O)c1cc(Cl)cc(C)c1NC(=O)c1cc(Br)nn1-c1ncccc1Cl` [Chlorantraniliprole, chlorantraniliprole, reference compound], the Permeability [1] was “- 4.3 ± 0.046”, the solubility ([2]; aqueous buffer, μSOL, at 25 ℃ and pH 7.4, read-out: Solubility (Equilibrium)) was 21.5 ± 1.59 µM and the solubility ([2]; pH 7.4, aqueous buffer) was 10.4 ± 0.771 µg/mL. The “Eating area (%)” value ([3]; 25 ppm) was 0–5%, the mortality at 25 ppm ([3]; 24 h, read-out: Larvicidal activity (%) at 24 h, replicate 2, 24 h, 25 ppm) was 30% and the mortality at 25 ppm ([3]; 48 h, read-out: Larvicidal activity (%) at 48 h, Average, 48 h, 25 ppm, average of three replicates) was 86.7%. It also gave a mortality at 25 ppm ([3]; 48 h, read-out: Larvicidal activity (%) at 48 h, replicate 1, 48 h, 25 ppm) of 90%, a mortality at 25 ppm ([3]; 48 h, read-out: Larvicidal activity (%) at 48 h, replicate 2, 48 h, 25 ppm) of 80% and a mortality at 25 ppm ([3]; 48 h, read-out: Larvicidal activity (%) at 48 h, replicate 3, 48 h, 25 ppm) of 90%. The mortality at 25 ppm ([3]; 72 h, read-out: Larvicidal activity (%) at 72 h, Average, 72 h, 25 ppm, average of three replicates) was 100%, the mortality at 25 ppm ([3]; 72 h, read-out: Larvicidal activity (%) at 72 h, replicate 1, 72 h, 25 ppm) was 100% and the mortality at 25 ppm ([3]; 72 h, read-out: Larvicidal activity (%) at 72 h, replicate 2, 72 h, 25 ppm) was 100%. It also gave a mortality at 25 ppm ([3]; 72 h, read-out: Larvicidal activity (%) at 72 h, replicate 3, 72 h, 25 ppm) of 100%, a mortality at 25 ppm ([3]; 96 h, read-out: Larvicidal activity (%) at 96 h, Average, 96 h, 25 ppm, average of three replicates) of 100% and a mortality at 25 ppm ([3]; 96 h, read-out: Larvicidal activity (%) at 96 h, replicate 1, 96 h, 25 ppm) of 100%. For the same compound, the mortality at 25 ppm ([3]; 96 h, read-out: Larvicidal activity (%) at 96 h, replicate 2, 96 h, 25 ppm) was 100%, the mortality at 25 ppm ([3]; 96 h, read-out: Larvicidal activity (%) at 96 h, replicate 3, 96 h, 25 ppm) was 100% and the mortality ([3]; read-out: Larvicidal activity (%) at 24 h, replicate 2, 24 h, 25 ppm, listed as Ref.) was 20%. The mortality ([3]; read-out: Larvicidal activity (%) at 48 h, Average, 48 h, 25 ppm, average of three replicates, listed as Ref.) was 66.7%, the mortality ([3]; read-out: Larvicidal activity (%) at 48 h, replicate 2, 48 h, 25 ppm, listed as Ref.) was 70% and the mortality ([3]; read-out: Larvicidal activity (%) at 72 h, Average, 72 h, 25 ppm, average of three replicates) was 100%. For the same compound, the mortality ([3]; read-out: Larvicidal activity (%) at 72 h, replicate 1, 72 h, 25 ppm) was 100%, the mortality ([3]; read-out: Larvicidal activity (%) at 72 h, replicate 2, 72 h, 25 ppm) was 100% and the mortality ([3]; read-out: Larvicidal activity (%) at 72 h, replicate 3, 72 h, 25 ppm) was 100%. It also gave a mortality ([3]; read-out: Larvicidal activity (%) at 96 h, Average, 96 h, 25 ppm, average of three replicates) of 100%, a mortality ([3]; read-out: Larvicidal activity (%) at 96 h, replicate 1, 96 h, 25 ppm) of 100% and a mortality ([3]; read-out: Larvicidal activity (%) at 96 h, replicate 2, 96 h, 25 ppm) of 100%. The mortality ([3]; read-out: Larvicidal activity (%) at 96 h, replicate 3, 96 h, 25 ppm) was 100% and the logP ([4]; ACD/Labs T3 method (pH-metric), read-out: Log P) was 5.25.

For `CNC(=O)c1cc(SC)cc(C)c1NC(=O)c1cc(Br)nn1-c1ncccc1Cl` [Compound 14, 3-Bromo-1-(3-chloropyridin-2-yl)-N-(2-methyl-6-(methylcarbamoyl)-4-(methylthio)phenyl)-1H-pyrazole-5-carboxamide], the Permeability [1] was “- 4.3 ± 0.047”, the solubility ([2]; pH 7.4, aqueous buffer) was 5.4 µM and 2.67 µg/mL and the mortality at 50 ppm [3, 5] was 0%. It also gave a mortality at 50 ppm [3, 6] of 0%, a mortality at 50 ppm [3, 7] of 0% and a mortality at 50 ppm [3, 8] of 0%. The mortality at 50 ppm [3, 9] was 13.3%, the mortality at 50 ppm [3, 10] was 20% and the mortality at 50 ppm [3, 11] was 0%. For the same compound, the mortality at 50 ppm [3, 12] was 20%, the mortality at 50 ppm [3, 13] was 70% and the mortality at 50 ppm [3, 14] was 30%. For the same compound, the mortality at 50 ppm [3, 15] was 40%, the mortality at 50 ppm [3, 16] was 80% and the mortality at 50 ppm [3, 17] was 70%. It also gave a mortality at 50 ppm [3, 18] of 70%, a mortality [3, 19] of 46.7% and a mortality [3, 20] of 73.3%. For the same compound, the “Eating Area (%) 96 h” value [3, 21] was 5–10% and the logP [4] was 3.45.

With `CNC(=O)c1cc(S(C)=NC(=O)C(F)(F)F)cc(C)c1NC(=O)c1cc(Br)nn1-c1ncccc1Cl` (stereo not drawn) [Compound 15a, 3-Bromo-1-(3-chloropyridin-2-yl)-N-(2-methyl-4-(S-methyl-N-(2,2,2-trifluoroacetyl)sulfinimidoyl)-6-(methylcarbamoyl)phenyl)-1H-pyrazole-5-carboxamide] the Permeability [1] was “- 4.5 ± 0.059”, the solubility ([2]; pH 7.4, aqueous buffer) was 397 µM and 241 µg/mL and the mortality at 50 ppm [3, 5] was 0%. The mortality at 50 ppm [3, 6] was 0%, the mortality at 50 ppm [3, 7] was 0% and the mortality at 50 ppm [3, 8] was 0%. It also gave a mortality at 50 ppm [3, 9] of 0%, a mortality at 50 ppm [3, 10] of 0% and a mortality at 50 ppm [3, 11] of 0%. The mortality at 50 ppm [3, 12] was 0%, the mortality at 50 ppm ([3]; 72 h, read-out: Larvicidal Activity (%) at Time (h) 72 h, third instar larvae of S. litura, 72 h, concentration of 14 and 15a 50 ppm) was 46.7% and the mortality at 50 ppm [3, 13] was 50%. For the same compound, the mortality at 50 ppm [3, 14] was 40%, the mortality at 50 ppm [3, 15] was 50% and the mortality at 50 ppm ([3]; 96 h, read-out: Larvicidal Activity (%) at Time (h) 96 h, third instar larvae of S. litura, 96 h, concentration of 14 and 15a 50 ppm) was 53.3%. It also gave a mortality at 50 ppm [3, 16] of 50%, a mortality at 50 ppm [3, 17] of 50% and a mortality at 50 ppm [3, 18] of 60%. The “Eating Area (%) 96 h” value [3, 21] was 5–10% and the logP [4] was 3.74.

For `CNC(=O)c1cc([S+](C)[O-])cc(C)c1NC(=O)c1cc(Br)nn1-c1ncccc1Cl` (stereo not drawn) [Compound 15b, 3-bromo-1-(3-chloropyridin-2-yl)-N-(2-methyl-6-(methylcarbamoyl)-4-(methylsulfinyl)phenyl)-1H-pyrazole-5-carboxamide], the Permeability [1] was “- 4.8 ± 0.037”, the solubility ([2]; pH 7.4, aqueous buffer) was 486 µM and 248 µg/mL and the mortality [3, 19] was 0%. The mortality [3, 20] was 0%, the “Eating Area (%) 96 h” value [3, 21] was greater than 30% and the logP [4] was 2.59.

In the case of `CNC(=O)c1cc(S(C)(=O)=NC(=O)C(F)(F)F)cc(C)c1NC(=O)c1cc(Br)nn1-c1ncccc1Cl` (stereo not drawn) [Compound 16a, 3-Bromo-1-(3-chloropyridin-2-yl)-N-(2-methyl-4-(S-methyl-N-(2,2,2-trifluoroacetyl)sulfonimidoyl)-6-(methylcarbamoyl)phenyl)-1H-pyrazole-5-carboxamide], the Permeability [1] is reported as “- 4.7 ± 0.075”, the solubility ([2]; pH 7.4, aqueous buffer) is reported as 397 µM and 247 µg/mL and the mortality [3, 19] is reported as 0%. The mortality [3, 20] was 0%, the “Eating Area (%) 96 h” value [3, 21] was greater than 30% and the logP [4] was 4.95.

With `CNC(=O)c1cc(S(C)(=O)=O)cc(C)c1NC(=O)c1cc(Br)nn1-c1ncccc1Cl` [Compound 16b, 3-Bromo-1-(3-chloropyridin-2-yl)-N-(2-methyl-6-(methylcarbamoyl)-4-(methylsulfonyl)phenyl)-1H-pyrazole-5-carboxamide] the Permeability [1] was “- 4.5 ± 0.030”, the solubility ([2]; pH 7.4, aqueous buffer) was 124 µM and 65.6 µg/mL and the mortality [3, 19] was 0%. The mortality [3, 20] was 0%, the “Eating Area (%) 96 h” value [3, 21] was greater than 30% and the logP [4] was 3.04.

With `CNC(=O)c1cc(C#N)cc(C)c1NC(=O)c1cc(Br)nn1-c1ncccc1Cl` [Cyantraniliprole, cyantraniliprole, reference compound] the Permeability [1] was “- 4.4 ± 0.077”, the solubility ([2]; pH 7.4, aqueous buffer) was 378 µM and 179 µg/mL and the logP [4] was 3.5.
